Data from patent publication US20070225170A1, “2-Halo-6-Alkylphenyl-Substituted Tetramic Acid Derivatives” (BAYER CROPSCIENCE AKTIENGESELLSCHAFT, priority 2003, published 2007).

Key:
[1] = test system: greenhouse red spider mite (Tetranychus urticae); assay: Tetranychus test (OP-resistant/spray treatment); format: in vivo
Protocol: Tetranychus Test (OP-Resistant/Spray Treatment)
To produce a suitable preparation of active compound, 1 part by weight of active compound is mixed with the stated amounts of solvents and emulsifier, and the concentrate is diluted with emulsifier-containing water to the desired concentration.
Discs of bean leaves (Phaseolus vulgaris), which are infested by all stages of the greenhouse red spider mite (Tetranychus urticae), are sprayed with a preparation of active compound of the desired concentration.
After the desired period of time, the activity in % is determined. 100% means that all spider mites have been killed; 0% means that none of the spider mites have been killed.

[2] = test system: Avena sativa; assay: Herbicidal post-emergence action, greenhouse; format: in vivo; conditions: 320 g of a.i./ha, greenhouse (T22-T24)
Protocol: (§1) Herbicidal Post-Emergence Action
(§2) Seeds of monocotyledonous and dicotyledonous weed and crop plants are placed into sandy loam in wood fibre pots, covered with soil and cultivated in a greenhouse under good growth conditions. 2-3 weeks after sowing, the test plants are treated at the one-leaf stage. The test compounds, formulated as wettable powders (WP), are, in various dosages with a water application rate of 600 l/ha (converted), with 0.2% of wetting agent added, sprayed onto the green parts of the plants. After the test plants were kept in the greenhouse under optimum growth conditions for about 3 weeks, the effect of the preparations is rated visually in comparison to untreated controls (herbicidal effect in percent (%): 100% effect=the plants have died, 0% effect=like control plants).

[3] = test system: Lolium; assay: Herbicidal post-emergence action, greenhouse; format: in vivo; conditions: 320 g of a.i./ha
Protocol: as §1, §2

[4] = test system: Setaria; assay: Herbicidal post-emergence action, greenhouse; format: in vivo; conditions: 320 g of a.i./ha
Protocol: as §1, §2

[5] = test system: Stellaria; assay: Herbicidal post-emergence action, greenhouse; format: in vivo; conditions: 320 g of a.i./ha
Protocol: as §1, §2

[6] = test system: Summer wheat; assay: Container trials with cereals in the greenhouse, without/with safener; conditions: in vivo
[7] = test system: Summer barley; assay: as above; conditions: in vivo
[8] = test system: larvae of the mustard beetle (Phaedon cochleariae); assay: Phaedon test (spray treatment); format: in vivo; conditions: 100 g/ha
Protocol: Phaedon Test (Spray Treatment) To produce a suitable preparation of active compound, 1 part by weight of active compound is mixed with the stated amounts of solvents and emulsifier, and the concentrate is diluted with emulsifier-containing water to the desired concentration. Discs of Chinese cabbage (Brassica pekinensis) are sprayed with a preparation of active compound of the desired concentration and, after they have dried, populated with larvae of the mustard beetle (Phaedon cochleariae).

[9] = test system: Sinapis; assay: Herbicidal post-emergence action, greenhouse; format: in vivo; conditions: 320 g of a.i./ha, greenhouse (T22)
Protocol: as §1, §2

[10] = test system: Amaranthus; assay: Herbicidal post-emergence action, greenhouse; format: in vivo; conditions: 320 g of a.i./ha, second series (T27, T28)
Protocol: as §1, §2

[11] = test system: Meloidogyne incognita; assay: Meloidogyne test; format: in vivo; conditions: 20 ppm; nematicidal action by formation of galls on lettuce roots
Protocol: To produce a suitable preparation of active compound, 1 part by weight of active compound is mixed with the stated amounts of solvent and emulsifier, and the concentrate is diluted with water to the desired concentration.
Vessels are filled with sand, solution of active compound, Meloidogyne incognita egg/larvae suspension and lettuce seeds. The lettuce seeds germinate and the plants develop. On the roots, galls develop.
After the desired period of time, the nematicidal action is determined in % by the formation of galls. 100%, means that no galls have been found; 0% means that the number of galls on the treated plants corresponds to that of the untreated control.

[12] = greenhouse, second series (T25-T28)
[13] = greenhouse, second series (T26, T28)

Structure (SMILES)	Kill rate in % after 5d ([1]; 100 g/ha) [%]	herbicidal effect, Avena sativa [2] [%]	herbicidal effect, Lolium ([3]; greenhouse (T22-T24)) [%]	herbicidal effect, Lolium [3, 12] [%]	herbicidal effect, Setaria ([4]; greenhouse (T22-T24)) [%]	herbicidal effect, Setaria [4, 12] [%]	herbicidal effect, Stellaria [5, 13] [%]	Summer wheat observed (%) [6] [%]	Kill rate in % after 5d ([1]; 500 g/ha) [%]	Summer barley observed (%) [7] [%]	Kill rate in % after 7d [8] [%]	herbicidal effect, Sinapis [9] [%]	herbicidal effect, Amaranthus [10] [%]	Effect in % after 14d [11] [%]	herbicidal effect, Stellaria ([5]; greenhouse (T23)) [%]
CCOC(=O)OC1=C(c2c(Br)cc(C)cc2CC)C(=O)N(C)C1CC (centres unmarked) [I-c-6]	70	80	90	80	100	80	70	15	–	–	–	–	–	–	–
CCOC(=O)OC1=C(c2c(Br)cc(C)cc2CC)C(=O)N(CC)C1C (centres unmarked) [I-c-7]	–	80	90	–	100	–	–	–	90	10	–	–	–	–	–
CCc1cc(C)cc(Br)c1C1=C(O)C(C)N(CC)C1=O (centres unmarked) [I-a-5]	90	80	90	–	100	–	–	–	–	–	–	–	–	–	–
CCc1cc(C)cc(Br)c1C1=C(O)CN(C2CC2)C1=O [I-a-7]	–	90	100	100	100	80	80	–	–	–	100	70	–	–	–
CCc1cc(C)cc(Br)c1C1=C(OC(=O)C(C)C)C(C)(C)NC1=O [I-b-2]	–	90	100	–	100	–	–	–	–	–	–	70	–	–	–
CCc1cc(C)cc(Br)c1C1=C(O)C(CC)N(C)C1=O (centres unmarked) [I-a-6]	80	80	100	–	100	–	–	–	–	–	100	70	–	–	–
CCc1cc(C)cc(Br)c1C1=C(OC(=O)C(C)(C)C)C2CCCN2C1=O (centres unmarked) [I-b-1]	–	90	90	100	90	100	–	–	–	–	–	–	70	–	–
CCc1cc(C)cc(Br)c1C1=C(O)C2CCCN2C1=O (centres unmarked) [I-a-1]	–	90	100	90	90	90	70	–	–	–	–	–	100	80	70
